One data set can be described thus: Solubility. To be noted: for solubility in organic solvents: DMSO, methanol, acetone and acetonitrile.
The test system of a further data set is thioredoxin reductase. To be noted: enzyme crosslinked with the thiol-specific reagent; Donna et al., Prot. Sci. 7:369–375, 1998; cited from earlier work.

`O=C1C=CC(=O)N1c1ccc2ccc3cccc4ccc1c2c34` [PyrM, N-(1-pyrenyl) maleimide]: in the data set “Solubility”, the “solubility in organic solvents” value is reported as “soluble in organic solvents” and the solubility in water entry is given as “not soluble in water”.
With `O=C1C=CC(=O)N1c1ccccc1N1C(=O)C=CC1=O` [oPDM, N,N′-(1,2-phenylene) dimaleimide], the “decrease in thioredoxin reductase activity” value in the data set on thioredoxin reductase is recorded as 95%. Also, in the data set “Solubility”, the “solubility in organic solvents” value was “soluble in organic solvents” and the solubility in water entry was “not soluble in water”.

The record behind these values is US7144992B2, “Synergistic antimicrobial compositions and methods for reducing biofilm formation” (Kane Biotech Inc., priority 2004, dated 2006).
